Patent US20220396565A1 (Hoffmann-La Roche Inc., priority 2020, published 2022)
Structures can show the parent of a compound that is named as a salt. Where two headings read alike, the source gives them in different places.

Test system: Acinetobacter baumannii ATCC17961
Experiment: Antimicrobial susceptibility testing: 90% growth inhibitory concentration (IC90) determination, Iso-Sensitest broth
Type: cell-based
Conditions: Acinetobacter baumannii
Procedure: The in vitro antimicrobial activity of the compounds was determined according to the following procedure:
The assay used a 10-points Iso-Sensitest broth medium to measure quantitatively the in vitro activity of the compounds against Acinetobacter baumannii ATCC17978 or ATCC17961.
Stock compounds in DMSO were serially twofold diluted (e.g. range from 10 to 0.02 μM final concentration) in 384 wells microtiter plates and inoculated with 49 μl the bacterial suspension in Iso-Sensitest medium to have a final cell concentration of ˜5×10^(5) CFU/ml in a final volume/well of 50 ul/well. Microtiter plates were incubated at 35±2° C.
Bacterial cell growth was determined with the measurement of optical density at k=600 nm each 20 minutes over a time course of 16 h. Growth inhibition was calculated during the logarithmic growth of the bacterial cells with determination of the concentration inhibiting 50% (IC50) and 90% (IC90) of the growth.
Table 1 provides the 90% growth inhibitory concentrations (IC90) in micromoles per liter of the compounds of present invention obtained against the strain Acinetobacter baumannii ATCC17978 or ATCC17961.

[1] = ATCC17961, 90% growth inhibitory concentration, Acinetobacter baumannii ATCC17961, Iso-Sensitest broth, read-out: ATCC 17961 IC90
[2] = ATCC17961, read-out: ATCC 17961 IC90

## Cn1c(-c2ccc(OCF)c(F)c2Cl)cnc1C(=O)Nc1ccc(C(=O)N2CCC(C(=O)N[C@H]3CCNC3)CC2)c(Cl)c1 [Example 65, 1-[2-chloro-4-[[5-[2-chloro-3-fluoro-4-(fluoromethoxy)phenyl]-1-methyl-imidazole-2-carbonyl]amino]benzoyl]-N-[(3S)-pyrrolidin-3-yl]piperidine-4-carboxamide formate]
[1]
  IC90: 50 nM

## Cn1c(-c2ccc(OCC#N)c(Cl)c2F)cnc1C(=O)Nc1ccc(C(=O)N2CCN(C(=O)C3CCNCC3)CC2)c(Cl)c1 [Example 268, 5-[3-chloro-4-(cyanomethoxy)-2-fluoro-phenyl]-N-[3-chloro-4-[4-(piperidine-4-carbonyl)piperazine-1-carbonyl]phenyl]-1-methyl-imidazole-2-carboxamide]
[1]
  IC90: 70 nM

## Cn1c(-c2ccc(CC#N)cc2F)cnc1C(=O)Nc1ccc(C(=O)N2CCN(C(=O)C3CCNCC3)CC2)c(Cl)c1 [Example 256, N-[3-chloro-4-[4-(piperidine-4-carbonyl)piperazine-1-carbonyl]phenyl]-5-[4-(cyanomethyl)-2-fluoro-phenyl]-1-methyl-imidazole-2-carboxamide formate]
[1]
  IC90: 8700 nM

## COc1ccc(-c2cnc(C(=O)Nc3ccc(C(=O)N4CCC(CCN)CC4)c(Cl)c3)n2C)c(F)c1F [Example 17, N-[4-[4-(2-Aminoethyl)piperidine-1-carbonyl]-3-chloro-phenyl]-5-(2,3-difluoro-4-methoxy-phenyl)-1-methyl-imidazole-2-carboxamide formate]
[2]
  IC90: 30 nM

## COc1ccc(-c2cnc(C(=O)Nc3ccc(C(=O)N4CC(NC(=O)C5CC(CN)C5)C4)c(Cl)c3)n2C)c(F)c1F (centres unmarked) [Example 218, N-(4-(3-(3-(aminomethyl)cyclobutane-1-carboxamido)azetidine-1-carbonyl)-3-chlorophenyl)-5-(2,3-difluoro-4-methoxyphenyl)-1-methyl-1H-imidazole-2-carboxamide 2,2,2-trifluoroacetate]
[1]
  IC90: 90 nM

## Cn1c(-c2ccc(OCF)c(F)c2F)cnc1C(=O)Nc1ccc(C(=O)N2CCC(C(=O)NC3CCNCC3)CC2)c(Cl)c1 [Example 89, 1-(2-chloro-4-(5-(2,3-difluoro-4-(fluoromethoxy)phenyl)-1-methyl-1H-imidazole-2-carboxamido)benzoyl)-N-(piperidin-4-yl)piperidine-4-carboxamide 2,2,2-trifluoroacetate]
[1]
  IC90: 50 nM

## CC[C@@]1(O)CN[C@H](C(=O)N2CCN(C(=O)c3ccc(NC(=O)c4ncc(-c5ccc(OCC#N)c(F)c5F)n4C)cc3C)CC2)C1 [Example 226, 5-[4-(cyanomethoxy)-2,3-difluoro-phenyl]-N-[4-[4-[(2S,4S)-4-ethyl-4-hydroxy-pyrrolidine-2-carbonyl]piperazine-1-carbonyl]-3-methyl-phenyl]-1-methyl-imidazole-2-carboxamide formate]
[1]
  IC90: 130 nM

## COc1ccc(-c2cnc(C(=O)Nc3ccc(C(=O)N4CCN(S(=O)(=O)C5CCNC5)CC4)c(Cl)c3)n2C)c(F)c1F (centres unmarked) [Example 241, N-[3-chloro-4-(4-pyrrolidin-3-ylsulfonylpiperazine-1-carbonyl)phenyl]-5-(2,3-difluoro-4-methoxy-phenyl)-1-methyl-imidazole-2-carboxamide]
[1]
  IC90: 150 nM

## COc1ccc(-c2cnc(C(=O)Nc3ccc(C(=O)N4C[C@H]5CN(C(=O)CN(C)C)C[C@H]5C4)c(Cl)c3)n2C)c(F)c1F [Example 190, N-[4-[(3aS,6aR)-2-[2-(dimethylamino)acetyl]-1,3,3a,4,6,6a-hexahydropyrrolo[3,4-c]pyrrole-5-carbonyl]-3-chloro-phenyl]-5-(2,3-difluoro-4-methoxy-phenyl)-1-methyl-imidazole-2-carboxamide formate]
[1]
  IC90: 180 nM

## COc1ccc(-c2cnc(C(=O)Nc3ccc(C(=O)N4CCC(C(=O)N5CC(CN)C5)CC4)c(Cl)c3)n2C)c(F)c1F [Example 34, N-[4-[4-[3-(aminomethyl)azetidine-1-carbonyl]piperidine-1-carbonyl]-3-chloro-phenyl]-5-(2,3-difluoro-4-methoxy-phenyl)-1-methyl-imidazole-2-carboxamidetrifluoroacetate]
[1]
  IC90: 70 nM

## COc1ccc(-c2cnc(C(=O)Nc3ccc(C(=O)N4CCC(NS(=O)(=O)CCN)CC4)c(Cl)c3)n2C)c(F)c1F [Example 236, N-[4-[4-(2-aminoethylsulfonylami-no)piperidine-1-carbonyl]-3-chloro-phenyl]-5-(2,3-difluoro-4-methoxy-phenyl)-1-methyl-imidazole-2-carboxamide]
[1]
  IC90: 60 nM

## Cn1c(-c2ccc(OCF)c(F)c2F)cnc1C(=O)Nc1ccc(C(=O)N2CCC(C(=O)N[C@@H]3CCNC3)CC2)c(Cl)c1 [Example 90, (R)-1-(2-chloro-4-(5-(2,3-difluoro-4-(fluoromethoxy)phenyl)-1-methyl-1H-imidazole-2-carboxamido)benzoyl)-N-(pyrrolidin-3-yl)piperidine-4-carboxamide 2,2,2-trifluoroacetate]
[1]
  IC90: 40 nM

## Cn1c(-c2ccc(OCC#N)c(F)c2F)cnc1C(=O)Nc1ccc(C(=O)N2CCN(C(=O)[C@@H]3CCCCN3)CC2)c(Cl)c1 [Example 211, (S)-N-(3-chloro-4-(4-(piperidine-2-carbonyl)piperazine-1-carbonyl)phenyl)-5-(4-(cyanomethoxy)-2,3-difluorophenyl)-1-methyl 1H-imidazole-2-carboxamide formate]
[2]
  IC90: 50 nM

## COc1ccc(-c2cnc(C(=O)Nc3ccc(C(=O)N4CCC(NC(=O)[C@@H]5CCNC5)C4)c(Cl)c3)n2C)c(F)c1F (stereo partly drawn) [Example 109, N-[3-chloro-4-[3-[[(3R)-pyrrolidine-3-carbonyl]amino]pyrrolidine-1-carbonyl]phenyl]-5-(2,3-difluoro-4-methoxy-phenyl)-1-methyl-imidazole-2-carboxamide formate]
[1]
  IC90: 150 nM

## Cn1c(-c2ccc(F)c(F)c2F)cnc1C(=O)Nc1ccc(C(=O)N2CCN(C(=O)C3CCNCC3)CC2)c(Cl)c1 [Example 191, N-[3-chloro-4-[4-(piperidine-4-carbonyl)piperazine-1-carbonyl]phenyl]-1-methyl-5-(2,3,4-trifluorophenyl)imidazole-2-carboxamide formate]
[1]
  IC90: 230 nM

## Cn1c(-c2ccc(OCC#N)c(F)c2F)cnc1C(=O)Nc1ccc(C(=O)N2CCN(C(=O)NCCN)CC2)c(Cl)c1 [Example 281, N-(2-Aminoethyl)-4-(2-chloro-4-(5-(4-(cyanomethoxy)-2,3-difluorophenyl)-1-methyl-1H-imidazole-2-carboxamido)benzoyl)piperazine-1-carboxamide 2,2,2-trifluoroacetate]
[2]
  IC90: 60 nM

## COc1ccc(-c2cnc(C(=O)Nc3ccc(C(=O)N4CCN(C(=O)C[C@@H]5CCNC5)CC4)c(Cl)c3)n2C)c(Cl)c1F [Example 167, 5-(2-chloro-3-fluoro-4-methoxy-phenyl)-N-[3-chloro-4-[4-[2-[(3S)-pyrrolidin-3-yl]acetyl]piperazine-1-carbonyl]phenyl]-1-methyl-imidazole-2-carboxamide formate]
[1]
  IC90: 50 nM

## COc1ccc(-c2cnc(C(=O)Nc3ccc(C(=O)N4CCC(C(=O)NCCC(=O)O)CC4)c(Cl)c3)n2C)c(F)c1F [Example 67, 3-[[1-[2-chloro-4-[[5-(2,3-difluoro-4-methoxy-phenyl)-1-methyl-imidazole-2-carbonyl]amino]benzoyl]piperidine-4-carbonyl]amino]propanoic acid]
[1]
  IC90: 3300 nM

## Cn1c(-c2ccc(OC(F)F)c(F)c2F)cnc1C(=O)Nc1ccc(C(=O)N2CCC(C(=O)NCC3CNC3)CC2)c(Cl)c1 [Example 245, N-(Azetidin-3-ylmethyl)-1-[2-chloro-4-[[5-[4-(difluoromethoxy)-2,3-difluoro-phenyl]-1-methyl-imidazole-2-carbonyl]amino]benzoyl]piperidine-4-carboxamide trifluoroacetate]
[2]
  IC90: 30 nM

## COc1cc(-c2cnc(C(=O)Nc3ccc(C(=O)N4CCN(C(=O)C5CCNCC5)CC4)c(Cl)c3)n2C)cc(F)c1F [Example 258, N-[3-chloro-4-[4-(piperidine-4-carbonyl)piperazine-1-carbonyl]phenyl]-5-(3,4-difluoro-5-methoxy-phenyl)-1-methyl-imidazole-2-carboxamide formate]
[1]
  IC90: 1120 nM

## COc1ccc(-c2cnc(C(=O)Nc3ccc(C(=O)N4CCN(C(=O)CCCC[C@@H]5SC[C@@H]6NC(=O)N[C@@H]65)CC4)c(Cl)c3)n2C)c(F)c1F [Example 130, N-[4-[4-[5-[(3aS,4S,6aR)-2-oxo-1,3,3a,4,6,6a-hexahydrothieno[3,4-d]imidazol-4-yl]pentanoyl]piperazine-1-carbonyl]-3-chloro-phenyl]-5-(2,3-difluoro-4-methoxy-phenyl)-1-methyl-imidazole-2-carboxamide]
[1]
  IC90: 260 nM

## COc1ccc(-c2cnc(C(=O)Nc3ccc(C(=O)N4CCN(C(=O)[C@@H]5CCNC[C@H]5O)CC4)c(Cl)c3)n2C)c(F)c1F [Example 230, N-[3-chloro-4-[4-[(3S,4R)-3-hydroxypiperidine-4-carbonyl]piperazine-1-carbonyl]phenyl]-5-(2,3-difluoro-4-methoxy-phenyl)-1-methyl-imidazole-2-carboxamide formate]
[1]
  IC90: 100 nM

## CN(C)CCN1CCN(C(=O)c2ccc(NC(=O)c3ncc(-c4ccc(Oc5ncccn5)c(F)c4F)n3C)cc2Cl)CC1 [Example 273, N-[3-chloro-4-[4-[2-(dimethylamino)ethyl]piperazine-1-carbonyl]phenyl]-5-(2,3-difluoro-4-pyrimidin-2-yloxy-phenyl)-1-methyl-imidazole-2-carboxamide trifluoroacetate]
[1]
  IC90: 1300 nM
